Measured values as given in publication PMC11066877, “Development and Characterization of Novel FAP-Targeted Theranostic Pairs: A Bench-to-Bedside Study” (Research, 2023).

Columns and labels:
[1] = target: T1, recombinant human FAP protein (Homo sapiens, UniProt Q12884); assay: SPR binding to immobilized recombinant human FAP protein
T1 construct: purchased ACRO Biosystems FAP-H5244
T1 sequence (Q12884 1-760): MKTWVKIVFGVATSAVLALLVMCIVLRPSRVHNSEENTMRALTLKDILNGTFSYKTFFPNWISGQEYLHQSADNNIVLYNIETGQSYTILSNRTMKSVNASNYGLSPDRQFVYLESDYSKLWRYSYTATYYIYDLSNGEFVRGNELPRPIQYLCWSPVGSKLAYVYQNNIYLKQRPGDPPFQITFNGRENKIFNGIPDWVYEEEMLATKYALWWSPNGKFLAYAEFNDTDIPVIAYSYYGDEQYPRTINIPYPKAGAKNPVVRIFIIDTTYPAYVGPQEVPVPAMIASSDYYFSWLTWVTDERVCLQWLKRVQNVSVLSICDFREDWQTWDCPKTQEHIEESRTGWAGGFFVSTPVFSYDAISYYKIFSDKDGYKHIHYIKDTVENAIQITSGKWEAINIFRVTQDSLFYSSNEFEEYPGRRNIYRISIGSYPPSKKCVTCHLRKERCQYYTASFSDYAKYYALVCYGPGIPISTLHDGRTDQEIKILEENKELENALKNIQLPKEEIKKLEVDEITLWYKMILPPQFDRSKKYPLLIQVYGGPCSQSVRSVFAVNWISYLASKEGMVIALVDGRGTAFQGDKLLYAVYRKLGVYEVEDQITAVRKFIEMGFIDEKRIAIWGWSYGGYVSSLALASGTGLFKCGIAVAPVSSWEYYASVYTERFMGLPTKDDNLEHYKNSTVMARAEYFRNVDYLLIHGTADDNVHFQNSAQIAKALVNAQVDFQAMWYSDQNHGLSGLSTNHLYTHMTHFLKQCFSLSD
Description: (§1) The Biacore SPR interaction study was conducted to determine the binding kinetics between the peptides and the immobilized human FAP protein (FAP-H5244, ACRO Biosystems) or murine FAP protein (FAP-M52H3, ACRO Biosystems) as target antigens. The final binding affinity, represented by the equilibrium dissociation degree (M) or KD, was calculated by examining the relationship between the binding rate constant (ka) (M^−1 s^−1) and the dissociation rate (kd) (s^−1).

[2] = target: T2, recombinant murine FAP protein (Mus musculus, UniProt P97321); assay: SPR binding to immobilized recombinant murine FAP protein
T2 construct: purchased ACRO Biosystems FAP-M52H3
T2 sequence (P97321 1-761): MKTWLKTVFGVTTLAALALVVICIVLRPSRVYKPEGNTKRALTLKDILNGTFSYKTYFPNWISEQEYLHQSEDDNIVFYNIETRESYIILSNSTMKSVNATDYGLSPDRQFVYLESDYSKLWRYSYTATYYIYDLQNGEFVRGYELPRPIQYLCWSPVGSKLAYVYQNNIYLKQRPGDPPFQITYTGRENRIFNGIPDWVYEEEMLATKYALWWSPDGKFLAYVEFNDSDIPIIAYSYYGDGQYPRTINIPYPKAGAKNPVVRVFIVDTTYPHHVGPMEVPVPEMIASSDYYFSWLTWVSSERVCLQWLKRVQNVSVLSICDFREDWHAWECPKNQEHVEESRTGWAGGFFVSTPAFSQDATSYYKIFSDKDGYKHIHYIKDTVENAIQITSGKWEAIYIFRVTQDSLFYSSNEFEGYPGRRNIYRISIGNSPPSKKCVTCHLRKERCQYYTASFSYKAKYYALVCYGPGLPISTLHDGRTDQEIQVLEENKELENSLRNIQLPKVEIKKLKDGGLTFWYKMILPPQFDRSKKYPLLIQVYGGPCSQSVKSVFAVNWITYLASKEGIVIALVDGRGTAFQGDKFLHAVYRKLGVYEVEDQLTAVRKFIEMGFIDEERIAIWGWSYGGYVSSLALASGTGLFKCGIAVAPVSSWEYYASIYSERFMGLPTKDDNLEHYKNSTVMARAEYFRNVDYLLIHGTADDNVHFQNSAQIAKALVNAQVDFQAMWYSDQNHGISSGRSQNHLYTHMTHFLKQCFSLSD
Description: as §1

[3] = microPET/CT imaging, ROI analysis, Panc-02 tumor models; format: in vivo, mice; settings: C57BL/6, mouse, intravenous, 3 MBq, 4 h p.i.
Description: (§2) A human pancreatic cancer cell line BxPC-3 and a murine pancreatic cancer cell Panc-02 were obtained from the American Type Culture Collection. The pancreatic cancer cell line T3M-4 was purchased by MeisenCTCC (Zhejiang, China). BxPC-3 and T3M-4 cell lines were grown in RPMI 1640 medium (Shanghai BasalMedia Technologies Co., LTD.) containing 10% FBS (GE Healthcare, Chicago, IL, USA) and 1% penicillin–streptomycin solution (Invitrogen). To culture the Panc-02 cell line, a medium called Dulbecco’s modified Eagle medium from Shanghai BasalMedia Technologies Co., LTD. was used, which consisted of 10% FBS. The cell line HT-1080 was grown in MEM medium (Shanghai BasalMedia Technologies Co., LTD.) supplemented with 10% FBS, 1% penicillin-streptomycin solution, and 1% nonessential amino acids (NEAA-11140050; Gibco). A human fibrosarcoma cell line was stably transfected with FAP (HT1080-FAP) and cultured, as we previously described. All cell lines were cultured in a humid incubator with 5% CO2 at a temperature of 37 °C. Approval was granted by the Institutional Animal Care and Use Committee (Renji Hospital, School of Medicine, Shanghai Jiao Tong University) for all experimental protocols and procedures related to animal care. Panc-02 cells were implanted by subcutaneous injection of 5 × 10^6 tumor cells suspended in 100 μl PBS and matrigel matrix (Corning) with equal volume into the upper limb flank of C57BL/6 mice (Shanghai Sheng Chang Biotechnology Co., Ltd.). Four- to 6-week-old thymus-free nude mice (GemPharmatech) were subcutaneously inoculated with BxPC-3, T3M-4, HT-1080, and HT1080-FAP cells (5 × 10^6 in 100 μl of PBS mixing with 100 μl matrigel matrix) in the right shoulder. […]
(§3) MicroPET imaging was performed on isoflurane-anesthetized mice injected intravenously via the lateral tail vein with around 3 MBq (2.5 nmol) of the radioligand at certain times. […] The information was analyzed using OsiriX Lite software (Pixmeo SARL) and Inveon Research Workplace (Siemens Preclinical Solutions). […]

[4] = microPET/CT imaging, ROI analysis, HT1080-FAP tumor models; format: in vivo, mice; settings: nude (thymus-free), mouse, intravenous, 3 MBq, HT1080-FAP tumor
Description: (§4) A human pancreatic cancer cell line BxPC-3 and a murine pancreatic cancer cell Panc-02 were obtained from the American Type Culture Collection. The pancreatic cancer cell line T3M-4 was purchased by MeisenCTCC (Zhejiang, China). BxPC-3 and T3M-4 cell lines were grown in RPMI 1640 medium (Shanghai BasalMedia Technologies Co., LTD.) containing 10% FBS (GE Healthcare, Chicago, IL, USA) and 1% penicillin–streptomycin solution (Invitrogen). To culture the Panc-02 cell line, a medium called Dulbecco’s modified Eagle medium from Shanghai BasalMedia Technologies Co., LTD. was used, which consisted of 10% FBS. The cell line HT-1080 was grown in MEM medium (Shanghai BasalMedia Technologies Co., LTD.) supplemented with 10% FBS, 1% penicillin-streptomycin solution, and 1% nonessential amino acids (NEAA-11140050; Gibco). A human fibrosarcoma cell line was stably transfected with FAP (HT1080-FAP) and cultured, as we previously described. All cell lines were cultured in a humid incubator with 5% CO2 at a temperature of 37 °C. Approval was granted by the Institutional Animal Care and Use Committee (Renji Hospital, School of Medicine, Shanghai Jiao Tong University) for all experimental protocols and procedures related to animal care. Panc-02 cells were implanted by subcutaneous injection of 5 × 10^6 tumor cells suspended in 100 μl PBS and matrigel matrix (Corning) with equal volume into the upper limb flank of C57BL/6 mice (Shanghai Sheng Chang Biotechnology Co., Ltd.). Four- to 6-week-old thymus-free nude mice (GemPharmatech) were subcutaneously inoculated with BxPC-3, T3M-4, HT-1080, and HT1080-FAP cells (5 × 10^6 in 100 μl of PBS mixing with 100 μl matrigel matrix) in the right shoulder. Follow-up microPET/CT imaging and ex vivo biodistribution experiments were performed when the tumor diameter reached 8 to 9 mm.
MicroPET imaging was performed on isoflurane-anesthetized mice injected intravenously via the lateral tail vein with around 3 MBq (2.5 nmol) of the radioligand at certain times. Regarding the FD1 blocking group, an excessive amount of unlabeled FD1 (200-fold) was simultaneously injected with [^68Ga]Ga-DOTA-FD1 into the tail vein of another batch of mice. Images were acquired using an IRIS PET/CT system (Inviscan Imaging Systems). PET data were reconstructed using a nonscatter-corrected 3D-ordered subset expectation […]/maximum a posteriori (OSEM3D/MAP) algorithm. The information was analyzed using OsiriX Lite software (Pixmeo SARL) and Inveon Research Workplace (Siemens Preclinical Solutions). The percentage of injected dose per gram of tissue (%ID/g, mean ± SD) was utilized to present the distribution of tracers in the ROI, encompassing tumor, heart, lung, liver, kidney, and muscle.

[5] = microPET/CT imaging, ROI analysis, HT-1080 tumor models; format: in vivo, mice; settings: nude (thymus-free), mouse, intravenous, 3 MBq, 4 h p.i.
Description: as §2, §3

[6] = Ex vivo biodistribution after imaging, HT-1080 tumor models; format: in vivo, mice; settings: nude (thymus-free), mouse, intravenous, 3 MBq, total radioactivity, 4.5 h p.i.
Description: A human pancreatic cancer cell line BxPC-3 and a murine pancreatic cancer cell Panc-02 were obtained from the American Type Culture Collection. The pancreatic cancer cell line T3M-4 was purchased by MeisenCTCC (Zhejiang, China). BxPC-3 and T3M-4 cell lines were grown in RPMI 1640 medium (Shanghai BasalMedia Technologies Co., LTD.) containing 10% FBS (GE Healthcare, Chicago, IL, USA) and 1% penicillin–streptomycin solution (Invitrogen). To culture the Panc-02 cell line, a medium called Dulbecco’s modified Eagle medium from Shanghai BasalMedia Technologies Co., LTD. was used, which consisted of 10% FBS. The cell line HT-1080 was grown in MEM medium (Shanghai BasalMedia Technologies Co., LTD.) supplemented with 10% FBS, 1% penicillin-streptomycin solution, and 1% nonessential amino acids (NEAA-11140050; Gibco). […]
After imaging collection and image reconstruction, samples from euthanized experimental mice, including blood and multiple significant organs, were harvested and weighed. The radioactivity in each collected tissue was counted using an automated gamma counter (Wizard 2480, PerkinElmer) and the accumulation of radioactivity in different tissues and organs was quantified and expressed as %ID/g (mean ± SD). […] At the end of each probe imaging and radioactivity counting study, tumor tissues were fixed in paraformaldehyde tissue fixative. […]

[7] = microPET/CT imaging, ROI analysis, BxPC-3 tumor models; format: in vivo, mice; settings: nude (thymus-free), mouse, intravenous, 3 MBq, 4 h p.i.
Description: as §2, §3

[8] = Ex vivo biodistribution after imaging, HT1080-FAP tumor models; format: in vivo, mice; settings: nude (thymus-free), mouse, intravenous, 3 MBq, total radioactivity; HT1080-FAP tumor, 4.5 h p.i.
Description: as §4
After imaging collection and image reconstruction, samples from euthanized experimental mice, including blood and multiple significant organs, were harvested and weighed. The radioactivity in each collected tissue was counted using an automated gamma counter (Wizard 2480, PerkinElmer) and the accumulation of radioactivity in different tissues and organs was quantified and expressed as %ID/g (mean ± SD). [^177Lu]Lu-DOTA-FD1 (~1.11 MBq, n = 3), [^177Lu]Lu-DOTA-FD2 (~1.11 MBq, n = 3), and [^177Lu]Lu-DOTA-FD3 (~1.11 MBq, n = 3) were injected into the tail vein of free nude mice at 6 h, 24 h, and 24 h for ex vivo biodistribution to verify the circulation time of the 3 probes in vivo. Biodistribution data from tumor-bearing mice injected with [^177Lu]Lu-DOTA-FD3 at 45 h (~1.11 MBq, n = 4) and 90 h (~1.11 MBq, n = 3) validated the prolonged enrichment of the probe at the tumor site. At the end of each probe imaging and radioactivity counting study, tumor tissues were fixed in paraformaldehyde tissue fixative. Briefly, sections of 10 μm were cut and stained for H&E following the standard protocols. IHC staining with a FAP antibody (ab227703, Abcam) was performed only on tumor tissues following accepted techniques.

CCCCCC(=O)N[C@H]1CSCc2cc(CSCCNC(=O)[C@H](CCCCN)NC(=O)[C@@H](NC(=O)[C@H](CCSC)NC(=O)CN3CCN(CC(=O)O)CCN(CC(=O)O)CCN(CC(=O)O)CC3)C(C)C)cc(c2)CSC[C@@H](C(=O)O)NC(=O)[C@H](Cc2ccccc2)NC(=O)[C@H](CCC(N)=O)NC(=O)[C@H]([C@@H](C)O)NC(=O)[C@@H]2CCCN2C(=O)[C@@H]2CCCN2C1=O [FD1]
Kd [1]: 3.3 nM
Kd [2]: 10.2 nM

CCCCCC(=O)N[C@H]1CSCc2cc(CSCCNC(=O)[C@H](CCCCNC(=O)CCCc3ccc(I)cc3)NC(=O)CN3CCN(CC(=O)O)CCN(CC(=O)O)CCN(CC(=O)O)CC3)cc(c2)CSC[C@@H](C(=O)O)NC(=O)[C@H](Cc2ccccc2)NC(=O)[C@H](CCC(N)=O)NC(=O)[C@H]([C@@H](C)O)NC(=O)[C@@H]2CCCN2C(=O)[C@@H]2CCCN2C1=O [FD2]
Kd [1]: 2.06 nM
Kd [2]: 11.6 nM

CCCCCC(=O)N[C@H]1CSCc2cc(CSCCNC(=O)[C@H](CCCCNC(=O)CCCc3ccc(I)cc3)NC(=O)[C@@H](NC(=O)[C@H](CCSC)NC(=O)CN3CCN(CC(=O)O)CCN(CC(=O)O)CCN(CC(=O)O)CC3)C(C)C)cc(c2)CSC[C@@H](C(=O)O)NC(=O)[C@H](Cc2ccccc2)NC(=O)[C@H](CCC(N)=O)NC(=O)[C@H]([C@@H](C)O)NC(=O)[C@@H]2CCCN2C(=O)[C@@H]2CCCN2C1=O [FD3]
Kd [1]: 6.25 nM
Kd [2]: 13.7 nM

CCCCCC(=O)N[C@H]1CSCc2cc(CSCCNC(=O)[C@H](CCCCNC(=O)CCCc3ccc(I)cc3)NC(=O)CN3CCN(CC(=O)O)CCN(CC(=O)O)CCN(CC(=O)O)CC3)cc(c2)CSC[C@@H](C(=O)O)NC(=O)[C@H](Cc2ccccc2)NC(=O)[C@H](CCC(N)=O)NC(=O)[C@H]([C@@H](C)O)NC(=O)[C@@H]2CCCN2C(=O)[C@@H]2CCCN2C1=O [[^68Ga]Ga-DOTA-FD2, metal not drawn]
tissue uptake at 4 h [3]: 6.9 ± 0.51 %ID/g
tissue uptake at 0.5 h ([4]; 30 min): 6.63 ± 0.64 %ID/g
tissue uptake at 2 h ([4]; 2 h): 8.23 ± 2.61 %ID/g
tissue uptake at 4 h ([4]; 4 h): 9.37 ± 0.61 %ID/g
tissue uptake at 4 h [5]: 8.1 ± 0.52 %ID/g
tissue uptake at 4.5 h [6]: 10.4 ± 1.84 %ID/g
tissue uptake at 4 h [7]: 7.67 ± 0.38 %ID/g
tissue uptake at 4.5 h [8]: 11.9 ± 1.83 %ID/g
